{"source": "paper PMC3680490", "about": "“Fragment-Based Screening Maps Inhibitor Interactions in the ATP-Binding Site of Checkpoint Kinase 2” (PLoS ONE, 2013)", "origin": "cited, not measured here", "key": {"[1]": {"tested_on": "ovarian cancer cell lines", "conditions": "cited from earlier work"}, "[2]": {"conditions": "cited from earlier work"}, "cancer cell lines": {"tested_on": "cancer cell lines", "set-up": "method as in PMID 19741151", "conditions": "cited from earlier work"}}}
{"smiles": "COc1cc2nc(-c3cc(F)ccc3O)nc(N[C@@H]3CNC[C@H]3C(C)(C)O)c2cc1OC", "note": "[CCT241533]", "values": [{"measurement": "Potentiation in combination with genotoxic agents", "setting": "[1]", "value": "no such effects have been observed"}, {"measurement": "Potentiation of the cytotoxicity of PARP inhibitors such as AG14447 and olaparib", "setting": "[2]", "value": "potentiates the cytotoxicity"}]}
{"smiles": "C/C(=N\\NC(=N)N)c1ccc(NC(=O)c2cc3cccc([N+](=O)[O-])c3[nH]2)cc1", "note": "[PV1019, 7-nitro-1H-indole-2-carboxylic acid {4-[1-(guanidinohydrazone)-ethyl]-phenyl}-amide]", "values": [{"measurement": "Potentiation of the cytotoxicity of topotecan and campothecan", "setting": "[1]; ovarian cancer cell lines", "value": "potentiation of the cytotoxicity"}, {"measurement": "Antiproliferative effect", "setting": "cancer cell lines", "value": "antiproliferative effect"}]}
